Data on 13 compounds can be found in BindingDB's records for doi:10.1021/jm970499g (Novartis Institute For Medical Sciences, 1998).

Assay [1] concerns the target Substance-P receptor (rabbit). Kind of assay: In vitro binding affinity towards Tachykinin receptor 1 to displace [3H][Sar9Met(O2)11]-SP (1 nM) binding to rabbit whole brain membranes.
Assay [2] has as its target Substance-P receptor (rabbit). The description is as above. The source holds these as a separate data set.

`COc1ccccc1CNC(=S)N1CCC[C@H]1C(=O)N[C@H](Cc1ccccc1)C(=O)N(C)Cc1ccccc1`: in assay [1], the affinity corresponds to a Ki of 1280 nM.
Same read-out and setting: to `COc1ccccc1CNC(=S)N1CCC[C@H]1C(=O)N[C@@H](Cc1ccccc1)C(=O)N(C)Cc1ccccc1` belongs 260 nM.
In assay [2], `COc1ccccc1CNC(=NC#N)N1CCC[C@H]1C(=O)NC(c1ccccc1)c1ccccc1` [1-[N-(2-Methoxy-benzyl)-N'-cyano-carbamimidoyl]-pyrrolidine-2-carboxylic acid benzhydryl-amide] came in with an IC50 of over 50000 nM.
On to `COc1ccccc1CNC(=S)N1CCC[C@@H]1C(=O)NC(c1ccccc1)c1ccccc1` [(R)-1-(2-Methoxy-benzylthiocarbamoyl)-pyrrolidine-2-carboxylic acid benzhydryl-amide], for which, in assay [2], the IC50 was over 5000 nM.
Same read-out and setting: next, `Nc1ccccc1CNC(=S)N1CCC[C@H]1C(=O)NC(c1ccccc1)c1ccccc1` [(S)-1-(2-Amino-benzylthiocarbamoyl)-pyrrolidine-2-carboxylic acid benzhydryl-amide]: over 50000 nM.
In turn, `O=C(NC(c1ccccc1)c1ccccc1)[C@@H]1CCCN1C(=S)NCc1ccccc1Br` [(S)-1-(2-Bromo-benzylthiocarbamoyl)-pyrrolidine-2-carboxylic acid benzhydryl-amide] showed a Ki in assay [1] of 170 nM.
On the same count and under the same terms, next, `O=C(NC(c1ccccc1)c1ccccc1)[C@@H]1CCCN1C(=S)NCc1ccccc1Cl` [(S)-1-(2-Chloro-benzylthiocarbamoyl)-pyrrolidine-2-carboxylic acid benzhydryl-amide]: 170 nM.
As to `O=C(NC(c1ccccc1)c1ccccc1)[C@@H]1CCCN1C(=S)NCc1ccccc1F` [(S)-1-(2-Fluoro-benzylthiocarbamoyl)-pyrrolidine-2-carboxylic acid benzhydryl-amide], in assay [1], the Ki was 1270 nM.
In assay [2], `COc1ccccc1CNC(=S)N1CCC[C@H]1C(=O)NCC(c1ccccc1)c1ccccc1` [(S)-1-(2-Methoxy-benzylthiocarbamoyl)-pyrrolidine-2-carboxylic acid (2,2-diphenyl-ethyl)-amide] showed an IC50 of over 5000 nM.
Compound `COc1ccccc1CNC(=S)N1CCC[C@H]1C(=O)NC(c1ccccc1)c1ccccc1` [(S)-1-(2-Methoxy-benzylthiocarbamoyl)-pyrrolidine-2-carboxylic acid benzhydryl-amide] had a Ki in assay [1] of 330 nM.
In assay [2], `COc1ccccc1CNC(=S)N1CCC[C@H]1C(=O)N(Cc1ccccc1)Cc1ccccc1` [(S)-1-(2-Methoxy-benzylthiocarbamoyl)-pyrrolidine-2-carboxylic acid dibenzylamide] showed a 50% inhibitory concentration (IC50) of over 50000 nM.
For the compound `O=C(NC(c1ccccc1)c1ccccc1)[C@@H]1CCCN1C(=S)NCc1ccccc1` [(S)-1-Benzylthiocarbamoyl-pyrrolidine-2-carboxylic acid benzhydryl-amide], the IC50 in assay [2] is over 5000 nM.
The compound `COc1ccccc1COC(=O)N1CCC[C@H]1C(=O)NC(c1ccccc1)c1ccccc1` [(S)-2-(Benzhydryl-carbamoyl)-pyrrolidine-1-carboxylic acid 2-methoxy-benzyl ester] showed an IC50 in assay [2] of over 50000 nM.
